Assay [1] concerns the target PI3Kγ (p110γ) Recombinant Human Protein (Homo sapiens (Human), UniProt P48736). The assay is described as follows: PI3K-γ scintillation proximity assay. Format: biochemical. From the text: Example B. PI3K-γ Scintillation Proximity Assay
[γ-^33P]ATP (10 mCi/mL) and Wheat Germ Agglutinin (WGA) YSi SPA Scintillation Beads was purchased from Perkin-Elmer (Waltham, Mass.). Lipid kinase substrate, D-myo-Phosphatidylinositol 4,5-bisphosphate (PtdIns(4,5)P2)D (+)-sn-1,2-di-O-octanoylglyceryl, 3-O-phospho linked (PIP2), CAS 204858-53-7, was purchased from Echelon Biosciences (Salt Lake City, Utah). PI3Kγ (p110γ) Recombinant Human Protein was purchased from Life technology (Grand Island, N.Y.). ATP, MgCl2, DTT, EDTA, MOPS and CHAPS were purchased from Sigma-Aldrich (St. Louis, Mo.).
(§1) The kinase reaction was conducted in polystyrene 384-well Greiner Bio-one white plate from Thermo Fisher Scientific in a final volume of 25 μL. Inhibitors were first diluted serially in DMSO and added to the plate wells before the addition of other reaction components. The final concentration of DMSO in the assay was 2%. The PI3Kγ assay was carried out at room temperature in 20 mM MOPS, pH 6.7, 10 mM MgCl2, 5 mM DTT and CHAPS 0.03%. Reactions were initiated by the addition of ATP, the final reaction mixture consisted of 20 μM PIP2, 2 μM ATP, 0.5 μCi [γ-^33P] ATP, 13 nM PI3Kγ. Reactions were incubated for 120 min and terminated by the addition of 40 μL SPA beads suspended in quench buffer: 163 mM potassium phosphate pH 7.8, 20% glycerol, 25 mM EDTA. The final concentration of SPA beads is 1.0 mg/mL. After the plate sealing, plates were shaken overnight at room temperature and centrifuged at 1500 rpm for 10 min, the radioactivity of the product was determined by scintillation counting on Topcount (Perkin-Elmer). IC50 determination was performed by fitting the curve of percent of the solvent control activity versus the log of the inhibitor concentration using the GraphPad Prism 6.0 software.
(In general: In a scintillation proximity assay essentially only radioactivity close to the scintillant gives light.)

The target in assay [2] is PI3Kδ (p110δ/p85α) Recombinant Human Protein (Homo sapiens (Human), UniProt O00329). The experiment in a line: PI3Kδ scintillation proximity assay. Format: biochemical. The note with it: read-out: P13Kδ IC50. On the procedure: PI3Kδ Scintillation Proximity Assay
Chain of PI3Kδ (p110δ/p85α) Recombinant Human Protein (O00329 whole entry): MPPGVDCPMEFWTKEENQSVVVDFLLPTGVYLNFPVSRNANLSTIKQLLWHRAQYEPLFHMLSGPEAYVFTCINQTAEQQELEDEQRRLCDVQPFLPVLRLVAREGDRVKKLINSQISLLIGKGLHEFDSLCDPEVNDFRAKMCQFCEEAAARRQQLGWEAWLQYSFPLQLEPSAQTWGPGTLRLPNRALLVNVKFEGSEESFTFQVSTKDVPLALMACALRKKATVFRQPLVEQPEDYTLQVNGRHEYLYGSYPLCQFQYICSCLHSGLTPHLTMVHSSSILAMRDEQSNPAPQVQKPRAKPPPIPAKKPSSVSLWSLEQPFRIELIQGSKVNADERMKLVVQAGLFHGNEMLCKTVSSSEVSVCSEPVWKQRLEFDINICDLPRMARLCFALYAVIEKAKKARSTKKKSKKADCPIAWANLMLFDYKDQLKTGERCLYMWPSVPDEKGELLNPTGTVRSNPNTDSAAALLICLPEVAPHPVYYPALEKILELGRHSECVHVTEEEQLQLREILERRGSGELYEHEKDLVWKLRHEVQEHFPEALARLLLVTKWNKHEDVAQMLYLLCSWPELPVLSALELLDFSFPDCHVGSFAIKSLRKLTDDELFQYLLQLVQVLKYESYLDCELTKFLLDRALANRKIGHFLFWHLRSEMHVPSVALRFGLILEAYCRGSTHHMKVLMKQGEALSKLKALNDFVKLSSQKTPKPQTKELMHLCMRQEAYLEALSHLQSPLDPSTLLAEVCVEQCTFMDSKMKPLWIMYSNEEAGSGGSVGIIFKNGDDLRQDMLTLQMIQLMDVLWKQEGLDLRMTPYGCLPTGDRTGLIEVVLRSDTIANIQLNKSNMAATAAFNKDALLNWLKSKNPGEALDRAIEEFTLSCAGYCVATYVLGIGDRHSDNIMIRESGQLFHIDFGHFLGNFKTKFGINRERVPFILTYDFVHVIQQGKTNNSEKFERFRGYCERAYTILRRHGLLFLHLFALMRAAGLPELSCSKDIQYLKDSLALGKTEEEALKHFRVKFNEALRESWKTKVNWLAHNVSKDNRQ
Chain of PI3Kδ (p110δ/p85α) Recombinant Human Protein (P27986 whole entry partner): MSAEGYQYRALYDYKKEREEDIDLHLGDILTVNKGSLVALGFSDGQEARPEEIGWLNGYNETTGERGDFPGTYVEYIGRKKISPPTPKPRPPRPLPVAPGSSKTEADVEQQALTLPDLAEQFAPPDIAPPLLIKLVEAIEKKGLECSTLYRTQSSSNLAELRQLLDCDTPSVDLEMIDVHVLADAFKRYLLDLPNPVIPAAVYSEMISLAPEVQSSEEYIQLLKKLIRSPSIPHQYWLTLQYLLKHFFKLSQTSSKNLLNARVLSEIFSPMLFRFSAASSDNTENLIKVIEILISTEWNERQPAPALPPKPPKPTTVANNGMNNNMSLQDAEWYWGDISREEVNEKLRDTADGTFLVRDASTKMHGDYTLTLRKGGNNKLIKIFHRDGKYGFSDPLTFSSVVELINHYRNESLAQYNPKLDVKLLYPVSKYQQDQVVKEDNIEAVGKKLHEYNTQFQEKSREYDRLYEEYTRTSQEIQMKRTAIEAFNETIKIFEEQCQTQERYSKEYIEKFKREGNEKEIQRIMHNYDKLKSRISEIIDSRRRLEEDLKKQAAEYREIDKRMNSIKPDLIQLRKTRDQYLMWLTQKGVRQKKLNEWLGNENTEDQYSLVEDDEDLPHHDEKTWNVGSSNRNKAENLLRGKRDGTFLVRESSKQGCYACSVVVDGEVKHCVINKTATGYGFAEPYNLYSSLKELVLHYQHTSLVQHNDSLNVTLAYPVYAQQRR
[γ-^33P]ATP (10 mCi/mL) and Wheat Germ Agglutinin (WGA) YSi SPA Scintillation Beads was purchased from Perkin-Elmer (Waltham, Mass.). […] PI3Kδ (p110δ/p85α) Recombinant Human Protein was purchased from Eurofins (St Charles, Mo.). ATP, MgCl2, DTT, EDTA, MOPS and CHAPS were purchased from SigmaAldrich (St. Louis, Mo.).
as §1, with “PI3Kδ” for “PI3Kγ”, “ATP, 13 nM PI3Kγ. Reactions were incubated for 120 min and terminated by the addition of 40 μL SPA beads suspended in quench buffer: 163 mM potassium phosphate pH 7.8, 20% glycerol, 25 mM EDTA.” left out, “(PerkinElmer).” for “(Perkin-Elmer).”

Assay [3] relates to Phosphorylated Ribosomal Protein S6 (RPS6) in THP-1 cells. The experiment in a line: THP-1 RPS6 ELISA assay. Type of assay: cell-based. The note with it: Homo sapiens, THP-1, THP-1 cells, 10 nM MCP-1 stimulation, phospho-RPS6 ELISA; read-out: PI3Kγ_THP1_RPS6_ELISA IC50. As to the method: Example A. THP-1 RPS6 ELISA Assay
To measure the Phosphorylated Ribosomal Protein S6 (RPS6) in cell lysates, THP-1 cells (Human Acute Monocytic Leukemia) are purchased from ATCC (Manassas, Va.) and maintained in RPMI with 10% FBS (Gibco/Life Technologies, Carlsbad, Calif.). For the assay, THP-1 cells are serum starved overnight in RPMI, then plated in RPMI (2×10^5 cells/well in 90 μL) into 96-well flat-bottom tissue culture treated plates (Corning, Corning, N.Y.), in the presence or absence of a concentration range of test compounds. Covered plates are incubated for 2 hours at 37° C., 5% CO2 then treated with or without 10 nM MCP-1(MYBioSource, San Diego, Calif.) for 15 minutes at 37° C., 5% CO2. Plates are centrifuged at 1600 RPM and supernatants are removed. Cells are lysed in Lysis Buffer (Cell Signaling, Danvers, Mass.) with Protease Inhibitor (Calbiochem/EMD, Germany), PMSF (Sigma, St Louis Mo.), HALTS (Thermo Fisher, Rockford, Ill.) for 30 min on wet ice. Cell lysates are frozen at −80° C. before testing. The lysates are tested in the Human/Mouse/Rat Phospho-RPS6 ELISA (R&D Systems, Inc. Minn, Minn.). The plate is measured using a microplate reader (SpectraMax M5—Molecular Devices, LLC Sunnyvale, Calif.) set to 450 nm with a wavelength correction of 540. […]
A general note: In an ELISA, binding on a coated surface is turned into a signal by an enzyme label.

Where [4] appears, read: 20 μM PIP2, 2 μM ATP, 13 nM PI3Kγ.
The mark [5] stands for this setting: 20 μM PIP2, 2 μM ATP, 3.4 nM PI3Kδ.

The source of these data is patent publication US11225486B2, “Tertiary alcohols as PI3K-γ inhibitors” (Incyte Corporation, priority 2017, dated 2022).

Where a name gives a salt, the structure may show the parent alone. Read-outs that look alike come from different tables or passages of the source.

Chain of PI3Kγ (p110γ) Recombinant Human Protein (P48736 whole entry): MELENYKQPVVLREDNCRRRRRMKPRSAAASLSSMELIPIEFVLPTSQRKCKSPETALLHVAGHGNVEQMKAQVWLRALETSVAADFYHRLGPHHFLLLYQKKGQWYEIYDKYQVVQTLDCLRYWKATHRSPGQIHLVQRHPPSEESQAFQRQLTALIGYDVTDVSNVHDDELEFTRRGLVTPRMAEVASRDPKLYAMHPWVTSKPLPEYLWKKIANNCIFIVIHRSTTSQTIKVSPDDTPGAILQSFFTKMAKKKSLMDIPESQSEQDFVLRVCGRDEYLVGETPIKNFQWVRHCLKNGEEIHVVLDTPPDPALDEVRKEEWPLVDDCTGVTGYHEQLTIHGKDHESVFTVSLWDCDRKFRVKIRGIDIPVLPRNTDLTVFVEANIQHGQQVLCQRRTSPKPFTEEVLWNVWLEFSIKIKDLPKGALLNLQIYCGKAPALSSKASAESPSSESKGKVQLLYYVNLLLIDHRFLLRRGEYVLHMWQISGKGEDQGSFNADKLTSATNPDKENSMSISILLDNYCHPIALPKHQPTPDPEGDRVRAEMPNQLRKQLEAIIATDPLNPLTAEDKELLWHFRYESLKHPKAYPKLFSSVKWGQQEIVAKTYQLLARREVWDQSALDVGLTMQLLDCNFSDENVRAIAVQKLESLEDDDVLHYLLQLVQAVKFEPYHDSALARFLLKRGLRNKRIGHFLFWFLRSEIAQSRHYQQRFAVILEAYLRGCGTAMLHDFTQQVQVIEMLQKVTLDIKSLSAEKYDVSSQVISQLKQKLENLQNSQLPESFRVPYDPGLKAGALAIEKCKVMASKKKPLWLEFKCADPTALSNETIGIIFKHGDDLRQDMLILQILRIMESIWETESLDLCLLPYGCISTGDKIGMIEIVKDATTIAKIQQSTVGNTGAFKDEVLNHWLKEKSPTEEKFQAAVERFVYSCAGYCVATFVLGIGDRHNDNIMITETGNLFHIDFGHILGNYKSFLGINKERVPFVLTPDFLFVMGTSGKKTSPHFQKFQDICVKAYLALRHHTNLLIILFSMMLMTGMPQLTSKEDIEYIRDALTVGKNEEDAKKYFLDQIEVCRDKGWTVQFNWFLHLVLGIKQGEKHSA

For the compound `Cc1ncc(-c2cn3c(-c4cc(C(O)(CO)C(F)(F)F)ccc4C)cnc3c(N)n2)o1` (single isomer, unassigned) [Example 68, 2-(3-(8-Amino-6-(2-methyloxazol-5-yl)imidazo[1,2-o]pyrazin-3-yl)-4-methylphenyl)-3,3,3-trifluoropropane-1,2-diol], the IC50 in assay [1] (setting [4]) and in assay [2] (setting [5]) was below 100 nM in each case.
For the compound `Cc1ccc(C(O)(C(N)=O)C(F)(F)F)cc1-c1cnc2c(N)nc(C(C)(C)O)cn12` (single isomer, unassigned) [Example 255, 2-(3-(8-Amino-6-(2-hydroxypropan-2-yl)imidazo[1,2-a]pyrazin-3-yl)-4-methylphenyl)-3,3,3-trifluoro-2-hydroxypropanamide trifluoroacetate salt (single enantiomer)], the IC50 in assay [1] (setting [4]) and in assay [2] (setting [5]) was below 100 nM each time.
On to `Cc1ccc(C(O)(C(N)=O)C(F)(F)F)cc1-c1cnc2c(N)nc(C(=O)NC34CCC(O)(CC3)C4)cn12` (single isomer, unassigned) [Example 260, 8-Amino-3-(5-(3-amino-1,1,1-trifluoro-2-hydroxy-3-oxopropan-2-yl)-2-methylphenyl)-N-(4-hydroxybicyclo[2.2.1]heptan-1-yl)imidazo[1,2-a]pyrazine-6-carboxamide trifluoroacetate salt (single enantiomer)], for which the IC50 in assay [1] (setting [4]) was below 100 nM; in assay [2] (setting [5]), 100 to 500 nM.
Regarding `Cc1ccc(C(C)(O)C(F)F)cc1-c1cnc2c(N)nc(-c3c[nH]nc3C)cn12` (stereo not drawn) [Example 47, 2-(3-(8-Amino-6-(3-methyl-1H-pyrazol-4-yl)imidazo[1,2-a]pyrazin-3-yl)-4-methylphenyl)-1,1-difluoropropan-2-ol, 1.2TFA], the half-maximal inhibitory concentration (IC50) in assay [1] (setting [4]), in assay [3] and in assay [2] (setting [5]) was below 100 nM in each case.
As for `Cc1ccc(C(O)(CO)C(F)(F)F)cc1-c1cnc2c(N)nc(-c3cnn(C)c3)cn12` (stereo not drawn) [Example 69, 2-(3-(8-Amino-6-(1-methyl-1H-pyrazol-4-yl)imidazo[1,2-a]pyrazin-3-yl)-4-methylphenyl)-3,3,3-trifluoropropane-1,2-diol trifluoroacetate salt], the 50% inhibitory concentration (IC50) in assay [1] and in assay [2] was below 100 nM each time.
Turning to `Cc1ncc(-c2cn3c(-c4cc(C(O)(CO)C(F)(F)F)ccc4C)cnc3c(N)n2)s1` (stereo not drawn) [Example 70, 2-(3-(8-Amino-6-(2-methylthiazol-5-yl)imidazo[1,2-a]pyrazin-3-yl)-4-methylphenyl)-3,3,3-trifluoropropane-1,2-diol trifluoroacetate salt], the IC50 in assay [1] and in assay [2] was below 100 nM each time.
Take `Cc1ccc(C(O)(CO)C(F)(F)F)cc1-c1cnc2c(N)nc(-c3cnco3)cn12` (stereo not drawn) [Example 71, 2-(3-(8-Amino-6-(oxazol-5-yl)imidazo[1,2-a]pyrazin-3-yl)-4-methylphenyl)-3,3,3-trifluoropropane-1,2-diol trifluoroacetate salt]: the IC50 in assay [1] and in assay [2] was below 100 nM throughout.

One may read the IC50 as the concentration that inhibits the measured activity by half.
